For one test, the system named is C. albicans ATCC 24433. The test can be described thus: Antifungal susceptibility, broth dilution MIC (CLSI M27-A2). The test is classed as cell-based. The conditions noted are these: Candida albicans, read-out: Activity against organisms (MIC50) Ca01.
The subject of a further test is C. tropicalis ATCC 750. The description is as above. The test is classed as cell-based, Candida tropicalis. As to conditions: for MIC50: Candida tropicalis, read-out: Activity against organisms (MIC50) Ct01.
In the next test the test system is C. neoformans ATCC 34664. The test is described as above. The test is classed as cell-based, Cryptococcus neoformans. The conditions noted are these: for MIC50: Cryptococcus neoformans, read-out: Activity against organisms (MIC50) Cn01.
The test system of another test is C. krusei ATCC 6258. The description is as above. As to conditions: Pichia kudriavzevii, read-out: Activity against organisms (MIC50) Ck01. The test is classed as cell-based, Candida krusei.
The next test relates to C. glabrata ATCC 90030. The description is as above. The test is classed as cell-based, Candida glabrata. As to conditions: Nakaseomyces glabratus, read-out: Activity against organisms (MIC50) Cg01.
The test system of the next test is A. niger ATCC 16404. Briefly: Antifungal susceptibility, broth dilution MIC (CLSI M38-A). As to conditions: Aspergillus niger, read-out: Activity against organisms (MIC50) An01. The test is classed as cell-based. In general terms: In broth dilution the organism is exposed to a series of concentrations in liquid medium.
The test system of a further test is A. fumigatus ATCC 46645. Described as above. The test is classed as cell-based. As to conditions: Aspergillus fumigatus, read-out: Activity against organisms (MIC50) Afm01.
The test system of test [1] is F. proliferatum ATCC 10052. Described as above. As to conditions: Fusarium proliferatum, read-out: Activity against organisms (MIC50) Fp01. The test is classed as cell-based.
Setting [2] is: ATCC24433, C. albicans ATCC 24433, broth dilution, RPMI 1640 with MOPS, 48 hours.
Where [3] appears, read: ATCC750, C. tropicalis ATCC 750, broth dilution, RPMI 1640 with MOPS, 48 hours.
Where [4] appears, read: ATCC34664, C. neoformans ATCC 34664, broth dilution, RPMI 1640 with MOPS, 48 hours.
The mark [5] stands for this setting: ATCC6258, C. krusei ATCC 6258, broth dilution, RPMI 1640 with MOPS, 48 hours.
Where [6] appears, read: ATCC90030, C. glabrata ATCC 90030, broth dilution, RPMI 1640 with MOPS, 48 hours.
[7] abbreviates: ATCC16404, A. niger ATCC 16404, broth dilution, RPMI 1640 with MOPS, 48 hours.
[8] abbreviates: ATCC46645, A. fumigatus ATCC 46645, broth dilution, RPMI 1640 with MOPS, 48 hours.
Where [9] appears, read: ATCC10052, F. proliferatum ATCC 10052, broth dilution, RPMI 1640 with MOPS, 48 hours.

The record followed here is patent US9540350B2, “1-substituted, 4-(substituted phenoxymethyl)-1,2,3-triazole compounds with antifungal properties and methods for preparation thereof” (FDC LIMITED, priority 2013, dated 2017).

Each structure is given as a SMILES string. In brackets after ≈: the same amount, converted by molar mass. Read-outs that look alike come from different tables or passages of the source.

The term MIC50 denotes the lowest concentration that inhibits either 50% of growth or 50% of the strains tested, depending on the study. `O=C(/C=C/c1ccc(Cl)cc1)c1ccc(O)cc1` [Compound 9A-4]: the MIC50 in the test with C. albicans ATCC 24433 (ATCC24433, 48 h) is more than 8 µg/mL; in the test on C. tropicalis ATCC 750 (ATCC750, 48 h), more than 8 µg/mL; with C. neoformans ATCC 34664 (ATCC34664, 48 h) it was more than 8 µg/mL; in the test on C. krusei ATCC 6258 (ATCC6258, 48 h) it was more than 8 µg/mL; in the test on C. glabrata ATCC 90030 (ATCC90030, 48 h) it was 32 µg/mL (≈ 124 µM); in the test with A. niger ATCC 16404 (ATCC16404, 48 h) it was more than 8 µg/mL. In addition, the MIC50 is more than 8 µg/mL with A. fumigatus ATCC 46645 (ATCC46645, 48 h) and more than 8 µg/mL in test [1] (ATCC10052, 48 h).
For `O=C(/C=C/c1ccc(O)cc1)c1ccc(O)cc1` [Compound 9A-5], the MIC50 in the test on C. albicans ATCC 24433 (setting [2]) is 32 µg/mL (≈ 133 µM); in the test with C. tropicalis ATCC 750 (setting [3]), more than 32 µg/mL; with C. neoformans ATCC 34664 (setting [4]), 32 µg/mL (≈ 133 µM); in the test with C. krusei ATCC 6258 (setting [5]), more than 32 µg/mL; in the test with C. glabrata ATCC 90030 (setting [6]), 16 µg/mL (≈ 66.6 µM); in the test with A. niger ATCC 16404 (setting [7]) it was 8 µg/mL (≈ 33.3 µM). Moreover, the MIC50 in the test with A. fumigatus ATCC 46645 (setting [8]) is 16 µg/mL (≈ 66.6 µM); in test [1] (setting [9]), more than 32 µg/mL.
As for `O=C(/C=C/c1cccs1)c1ccc(O)cc1` [Compound 10A-1], the MIC50 with C. albicans ATCC 24433 (setting [2]), in the test with C. tropicalis ATCC 750 (setting [3]), in the test on C. neoformans ATCC 34664 (setting [4]), in the test on C. krusei ATCC 6258 (setting [5]), in the test on C. glabrata ATCC 90030 (setting [6]) and in the test with A. niger ATCC 16404 (setting [7]) was more than 32 µg/mL throughout. The MIC50 (in the test on A. fumigatus ATCC 46645 (setting [8]); in test [1] (setting [9])) was more than 32 µg/mL throughout.
With `COc1ccc(C(=O)/C=C/c2cccs2)cc1` [Compound 10A-2], the MIC50 in the test on C. albicans ATCC 24433 (setting [2]), in the test on C. tropicalis ATCC 750 (setting [3]), in the test with C. neoformans ATCC 34664 (setting [4]), in the test on C. krusei ATCC 6258 (setting [5]), in the test with C. glabrata ATCC 90030 (setting [6]) and in the test on A. niger ATCC 16404 (setting [7]) was more than 8 µg/mL throughout. Moreover, the MIC50 (with A. fumigatus ATCC 46645 (setting [8]); in test [1] (setting [9])) was more than 8 µg/mL throughout.
With `CCCN1CCN(c2ccc(C(C)=O)cc2)CC1` [Compound 11A-1], the MIC50 in the test with C. albicans ATCC 24433 (setting [2]), with C. tropicalis ATCC 750 (setting [3]), in the test on C. neoformans ATCC 34664 (setting [4]), with C. krusei ATCC 6258 (setting [5]), with C. glabrata ATCC 90030 (setting [6]) and in the test on A. niger ATCC 16404 (setting [7]) was more than 128 µg/mL throughout. For the same compound, the MIC50 (in the test on A. fumigatus ATCC 46645 (setting [8]); in test [1] (setting [9])) was more than 128 µg/mL in each case.
Take `CCCCN1CCN(c2ccc(C(C)=O)cc2)CC1` [Compound 11A-2]: the MIC50 in the test on C. albicans ATCC 24433 (setting [2]), in the test on C. tropicalis ATCC 750 (setting [3]), in the test with C. neoformans ATCC 34664 (setting [4]), with C. krusei ATCC 6258 (setting [5]), in the test with C. glabrata ATCC 90030 (setting [6]) and in the test with A. niger ATCC 16404 (setting [7]) was more than 64 µg/mL each time. Further, the MIC50 (with A. fumigatus ATCC 46645 (setting [8]); in test [1] (setting [9])) was more than 64 µg/mL throughout.
As for `OC(Cn1cncn1)(Cn1cncn1)c1ccc(F)cc1F` [Fluconazole, reference compound], the MIC50 was 0.25 µg/mL (≈ 0.816 µM) with C. albicans ATCC 24433 (setting [2]); 1 µg/mL (≈ 3.27 µM) in the test with C. tropicalis ATCC 750 (setting [3]); 2 µg/mL (≈ 6.53 µM) with C. neoformans ATCC 34664 (setting [4]); 32 µg/mL (≈ 104 µM) in the test with C. krusei ATCC 6258 (setting [5]); 1 µg/mL (≈ 3.27 µM) with C. glabrata ATCC 90030 (setting [6]); more than 128 µg/mL with A. niger ATCC 16404 (setting [7]). Besides, the MIC50 (in the test with A. fumigatus ATCC 46645 (setting [8]); in test [1] (setting [9])) was more than 128 µg/mL throughout. In the test with C. tropicalis ATCC 750 (summary statement), the “antifungal activity against Candida tropicalis (in words)” value is listed as “weaker antifungal activity”. In the test with C. neoformans ATCC 34664 (summary statement), the “antifungal activity against Cryptococcus neoformans (in words)” value is on record as “weaker antifungal activity”.
